We go through five compounds from patent publication US10221186B2, “Spirocyclic heterocyclic compounds useful as HIV integrase inhibitors” (priority 2014, dated 2019).

Molecules are shown by their SMILES. Read-outs that look alike come from different tables or passages of the source.

For this test, the system named is HIV-1 (NL4-3 strain). The test can be described thus: Assay for inhibition of HIV replication (VIKING) in infected MT4-GFP cells. The conditions noted are these: infected cells at 48 h / 24 h. The class given is cell-based. The protocol: MT4-GFP cells (250,000 cells/ml) were bulk-infected with HIV-1 (NL4-3 strain) at low multiplicity of infection (MOI) in RPMI+10% FBS for 24 hours. […] Test compounds were serial-diluted in DMSO on ECHO. The infected MT4-GFP cells were added to a 384-well poly-D-lysine coated black plate with clear bottom in which the diluted test compounds were placed. The cells were seeded at 8,000 cells per well and the final DMSO concentration was 0.4%. The infected cells (Green GFP cells) were quantified at both 24 and 48 hours post incubation using Acumen eX3. Viral reproductive ratio (R0) was determined using the number of infected cells at 48 hours divided by the number of infected cells at 24 hours. Percent viral growth inhibition was calculated by [1−(R−Rtripledrug)/(RDMSO−Rtripledrug)]*100.

Where [1] appears, read: Human immunodeficiency virus 1, NL43, MT4-GFP cells infected with HIV-1 NL4-3, 0% NHS (normal human serum), read-out: VIKING IP50 (nM) with 0% NHS.
The mark [2] stands for this setting: Human immunodeficiency virus 1, NL43, MT4-GFP cells infected with HIV-1 NL4-3, 100% NHS (normal human serum), read-out: VIKING IP50 (nM) with 100% NHS.
Setting [3] is: MT4-GFP cells infected with HIV-1 NL4-3, 100% NHS (normal human serum), read-out: VIKING IP50 (nM) with 100% NHS.

On to `CCOP(=O)(CCN1CC2(CCOC2)n2cc(C(=O)NCc3ccc(F)cc3F)c(=O)c(O)c2C1=O)OCC` (stereo not shown) [Compound 31], for which the IC50 reads like this: under setting [1], 17 nM; under setting [2], 232 nM.

Consider `O=C(NCc1ccc(F)cc1F)c1cn2c(c(O)c1=O)C(=O)N(CCP(=O)(O)O)CC21CCOC1` (stereo not shown) [Compound 32], for which the IC50 was 293 nM under setting [1] and 873 nM under setting [2].

On to `COC1N(N(C)C)C(=O)c2c(O)c(=O)c(C(=O)NCc3ccc(F)cc3F)cn2C12COC2` (stereo not shown) [Compound 38], for which the IC50 reads like this: under setting [1], 7 nM; under setting [2], 235 nM.

With `COCCN1CC2(CCOC2)n2cc(-c3nnc(Cc4ccc(F)cc4F)s3)c(=O)c(O)c2C1=O` (stereo not shown) [Compound 39], the IC50 under setting [1] is 2 nM and the IC50 under setting [3] came to 291 nM.

For `COCCN1CC2(CCOC2)n2cc(-c3nnc(Cc4ccc(F)cc4F)s3)c(=O)c(O)c2C1=O` (stereo not shown) [Compound 40], the IC50 (MT4-GFP cells infected with HIV-1 NL4-3, 0% NHS (normal human serum), read-out: VIKING IP50 (nM) with 0% NHS) was determined as 4 nM and the IC50 under setting [3] is 691 nM.
